In patent EP4745137A1 (Gluetacs Therapeutics (Shanghai) Co., Ltd., priority 2023, dated 2025):

Experiments:
[1] = molecular target: T1, IKZF3 (Homo sapiens, UniProt Q96SW2+Q9UKT9); assay: Western-blot assay of substrate protein degradation in hPBMCs, IKZF3; type: cell-based; conditions: 24 hours of compound treatment
T1 construct: endogenous in cells; host or cells: hPBMCs (Milecell Biotechnologies)

[2] = molecular target: T2, WEE1 (Homo sapiens, UniProt P30291+Q96SW2); assay: Western-blot assay of substrate protein degradation in hPBMCs, WEE1; type: cell-based; conditions: 24 hours of compound treatment
T2 construct: endogenous in cells; host or cells: hPBMCs (Milecell Biotechnologies)

[3] = molecular target: T3, CK1α (Homo sapiens, UniProt P48729+Q96SW2); assay: Western-blot assay of substrate protein degradation in hPBMCs, CK1α; type: cell-based; conditions: 24 hours of compound treatment
T3 construct: endogenous in cells; host or cells: hPBMCs (Milecell Biotechnologies)

[4] = molecular target: T4, human Cereblon WT GST-tagged protein (Homo sapiens, UniProt Q96SW2); assay: CRBN-binding affinity by HTRF (CEREBLON BINDING kit); conditions: HTRF inhibitory activity, CEREBLON BINDING kit; read-out: HTRF IC50
T4 construct: purchased CISBIO 64BDCRBNPEH

[5] = molecular target: T5, GSPT1 (Homo sapiens, UniProt P15170+Q96SW2); assay: Western-blot assay of substrate protein degradation in hPBMCs, GSPT1; type: cell-based; conditions: 24 hours of compound treatment
T5 construct: endogenous in cells; host or cells: hPBMCs (Milecell Biotechnologies)

[6] = molecular target: T6, IKZF2 (Homo sapiens, UniProt Q96SW2+Q9UKS7); assay: Western-blot assay of substrate protein degradation in hPBMCs, IKZF2; type: cell-based; conditions: 24 hours of compound treatment
T6 construct: endogenous in cells; host or cells: hPBMCs (Milecell Biotechnologies)

[7] = molecular target: T7, IKZF1 (Homo sapiens, UniProt Q13422+Q96SW2); assay: Western-blot assay of substrate protein degradation in hPBMCs, IKZF1; type: cell-based; conditions: 24 hours of compound treatment
T7 construct: endogenous in cells; host or cells: hPBMCs (Milecell Biotechnologies)

[8] = compounds tested at 50 nM and 500 nM (concentration of the table not stated)
[9] = 50 nM and 500 nM tested (concentration behind the class not stated)

T7 sequence (Q13422 whole entry): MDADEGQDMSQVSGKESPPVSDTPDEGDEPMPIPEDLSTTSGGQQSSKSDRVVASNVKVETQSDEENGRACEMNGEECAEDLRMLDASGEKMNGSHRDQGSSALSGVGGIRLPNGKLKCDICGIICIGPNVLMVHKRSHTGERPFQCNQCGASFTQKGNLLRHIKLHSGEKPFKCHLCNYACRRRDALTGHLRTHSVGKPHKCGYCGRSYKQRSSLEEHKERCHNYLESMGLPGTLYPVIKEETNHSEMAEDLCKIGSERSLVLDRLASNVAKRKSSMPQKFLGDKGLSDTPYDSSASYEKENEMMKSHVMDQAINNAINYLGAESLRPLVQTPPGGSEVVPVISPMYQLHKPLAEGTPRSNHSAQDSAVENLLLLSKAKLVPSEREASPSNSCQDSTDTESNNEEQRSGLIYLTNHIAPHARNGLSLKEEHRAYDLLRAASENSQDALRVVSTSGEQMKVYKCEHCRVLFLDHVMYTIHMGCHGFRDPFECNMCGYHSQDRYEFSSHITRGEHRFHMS
T7 sequence (Q96SW2 whole entry): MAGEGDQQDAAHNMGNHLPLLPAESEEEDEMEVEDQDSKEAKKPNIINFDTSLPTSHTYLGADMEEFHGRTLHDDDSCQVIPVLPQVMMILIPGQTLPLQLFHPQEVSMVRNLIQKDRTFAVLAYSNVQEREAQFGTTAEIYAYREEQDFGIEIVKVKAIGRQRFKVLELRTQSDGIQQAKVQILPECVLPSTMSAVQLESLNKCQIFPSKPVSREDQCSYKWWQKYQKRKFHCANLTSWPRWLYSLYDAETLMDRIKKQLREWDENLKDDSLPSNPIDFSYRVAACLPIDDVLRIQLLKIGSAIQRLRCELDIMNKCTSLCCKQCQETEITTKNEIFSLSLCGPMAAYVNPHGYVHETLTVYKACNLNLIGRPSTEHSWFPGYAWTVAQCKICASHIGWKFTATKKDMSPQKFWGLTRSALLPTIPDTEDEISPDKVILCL
T7 sequence (Q16531 whole entry partner): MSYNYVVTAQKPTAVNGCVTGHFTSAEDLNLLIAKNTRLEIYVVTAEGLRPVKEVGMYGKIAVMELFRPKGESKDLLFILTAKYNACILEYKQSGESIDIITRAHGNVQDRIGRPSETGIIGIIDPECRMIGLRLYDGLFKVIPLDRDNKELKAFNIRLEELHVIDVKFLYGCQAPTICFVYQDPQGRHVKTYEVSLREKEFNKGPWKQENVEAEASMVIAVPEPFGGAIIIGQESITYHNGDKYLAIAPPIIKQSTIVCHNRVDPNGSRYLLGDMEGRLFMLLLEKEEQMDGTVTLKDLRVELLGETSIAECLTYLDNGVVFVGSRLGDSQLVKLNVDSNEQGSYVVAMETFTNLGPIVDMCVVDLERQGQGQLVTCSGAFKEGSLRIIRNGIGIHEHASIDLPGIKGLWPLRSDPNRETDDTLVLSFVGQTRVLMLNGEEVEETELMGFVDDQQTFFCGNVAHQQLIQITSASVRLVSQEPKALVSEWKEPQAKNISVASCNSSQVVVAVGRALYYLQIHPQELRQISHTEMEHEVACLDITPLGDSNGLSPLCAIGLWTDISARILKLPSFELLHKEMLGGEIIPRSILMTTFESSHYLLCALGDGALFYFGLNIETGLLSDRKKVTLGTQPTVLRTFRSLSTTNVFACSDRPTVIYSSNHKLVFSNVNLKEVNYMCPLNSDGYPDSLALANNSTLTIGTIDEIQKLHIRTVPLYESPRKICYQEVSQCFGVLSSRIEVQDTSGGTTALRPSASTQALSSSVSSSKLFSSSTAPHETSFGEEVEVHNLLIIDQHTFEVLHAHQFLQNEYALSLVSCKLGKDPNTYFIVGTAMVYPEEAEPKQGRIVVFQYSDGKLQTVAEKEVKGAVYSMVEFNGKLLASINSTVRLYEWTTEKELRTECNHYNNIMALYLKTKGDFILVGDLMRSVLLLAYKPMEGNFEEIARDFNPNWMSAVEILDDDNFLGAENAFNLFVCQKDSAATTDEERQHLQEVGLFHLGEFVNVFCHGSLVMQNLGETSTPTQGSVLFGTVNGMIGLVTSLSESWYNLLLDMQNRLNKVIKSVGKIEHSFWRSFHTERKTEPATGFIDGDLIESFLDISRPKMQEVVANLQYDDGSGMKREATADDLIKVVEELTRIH
T3 sequence (P48729 whole entry): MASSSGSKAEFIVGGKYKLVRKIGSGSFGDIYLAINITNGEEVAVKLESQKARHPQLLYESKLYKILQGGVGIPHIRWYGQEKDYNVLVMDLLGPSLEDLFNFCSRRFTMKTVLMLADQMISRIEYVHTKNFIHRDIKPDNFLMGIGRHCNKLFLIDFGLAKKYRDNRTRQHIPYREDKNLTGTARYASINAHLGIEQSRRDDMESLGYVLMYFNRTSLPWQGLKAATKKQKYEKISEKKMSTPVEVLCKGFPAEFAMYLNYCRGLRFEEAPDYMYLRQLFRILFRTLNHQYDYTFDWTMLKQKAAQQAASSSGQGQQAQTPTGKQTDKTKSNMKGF
T3 sequence (Q96SW2 whole entry): as the sequence (Q96SW2 whole entry) above
T3 sequence (Q16531 whole entry partner): as the sequence (Q16531 whole entry partner) above
T6 sequence (Q9UKS7 whole entry): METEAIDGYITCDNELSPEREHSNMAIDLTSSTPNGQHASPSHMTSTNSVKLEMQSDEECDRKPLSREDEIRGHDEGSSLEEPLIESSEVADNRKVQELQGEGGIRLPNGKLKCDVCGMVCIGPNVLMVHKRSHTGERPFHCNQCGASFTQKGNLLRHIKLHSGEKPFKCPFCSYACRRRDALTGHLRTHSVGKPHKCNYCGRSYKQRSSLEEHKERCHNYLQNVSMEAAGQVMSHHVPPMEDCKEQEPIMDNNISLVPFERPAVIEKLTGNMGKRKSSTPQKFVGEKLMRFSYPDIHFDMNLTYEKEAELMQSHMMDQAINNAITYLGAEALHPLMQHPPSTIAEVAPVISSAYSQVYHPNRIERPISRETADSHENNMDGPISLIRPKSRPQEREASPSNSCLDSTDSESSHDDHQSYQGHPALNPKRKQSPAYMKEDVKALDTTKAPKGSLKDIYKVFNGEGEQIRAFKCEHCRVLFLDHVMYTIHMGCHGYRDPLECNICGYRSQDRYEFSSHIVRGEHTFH
T6 sequence (Q96SW2 whole entry): as the sequence (Q96SW2 whole entry) above
T6 sequence (Q16531 whole entry partner): as the sequence (Q16531 whole entry partner) above
T4 sequence (Q96SW2 whole entry): as the sequence (Q96SW2 whole entry) above
T5 sequence (P15170 whole entry): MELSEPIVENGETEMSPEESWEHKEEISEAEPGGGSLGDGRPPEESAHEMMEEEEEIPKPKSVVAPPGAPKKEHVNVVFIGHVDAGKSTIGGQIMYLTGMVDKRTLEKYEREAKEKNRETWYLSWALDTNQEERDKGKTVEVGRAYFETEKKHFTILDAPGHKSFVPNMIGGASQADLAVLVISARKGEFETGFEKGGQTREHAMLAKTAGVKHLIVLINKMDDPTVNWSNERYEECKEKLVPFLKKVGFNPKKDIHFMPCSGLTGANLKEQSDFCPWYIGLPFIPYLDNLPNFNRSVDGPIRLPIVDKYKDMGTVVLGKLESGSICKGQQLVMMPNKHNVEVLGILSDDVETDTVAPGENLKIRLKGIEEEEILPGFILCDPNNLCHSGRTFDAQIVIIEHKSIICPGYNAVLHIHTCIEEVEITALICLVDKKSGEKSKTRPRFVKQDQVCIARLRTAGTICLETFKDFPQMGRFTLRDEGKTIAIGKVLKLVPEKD
T5 sequence (Q96SW2 whole entry): as the sequence (Q96SW2 whole entry) above
T5 sequence (Q16531 whole entry partner): as the sequence (Q16531 whole entry partner) above
T1 sequence (Q9UKT9 whole entry): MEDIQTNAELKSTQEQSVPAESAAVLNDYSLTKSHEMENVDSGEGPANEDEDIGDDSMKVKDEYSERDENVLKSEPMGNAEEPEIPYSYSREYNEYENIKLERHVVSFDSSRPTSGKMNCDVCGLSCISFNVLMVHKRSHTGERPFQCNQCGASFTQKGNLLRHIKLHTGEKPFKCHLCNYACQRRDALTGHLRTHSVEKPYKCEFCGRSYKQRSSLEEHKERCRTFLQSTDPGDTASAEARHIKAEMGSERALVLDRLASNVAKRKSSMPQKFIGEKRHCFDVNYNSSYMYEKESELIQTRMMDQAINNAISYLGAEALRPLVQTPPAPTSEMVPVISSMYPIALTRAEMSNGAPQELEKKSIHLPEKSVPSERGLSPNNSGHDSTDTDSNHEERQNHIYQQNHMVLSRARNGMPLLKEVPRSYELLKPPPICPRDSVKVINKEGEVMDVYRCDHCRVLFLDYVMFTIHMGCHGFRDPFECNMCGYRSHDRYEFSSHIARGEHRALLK
T1 sequence (Q96SW2 whole entry): as the sequence (Q96SW2 whole entry) above
T1 sequence (Q16531 whole entry partner): as the sequence (Q16531 whole entry partner) above

Row | SMILES | IKZF3 substrate protein remaining % [1, 8] | Weel substrate protein remaining % [2, 8] | CK1a substrate protein remaining % [3, 8] | IC50 [4] | GSPT1 substrate protein remaining % [5, 8] | IKZF2 substrate protein remaining % [6, 8] | IKZF 1 substrate protein remaining % [7, 8] | IKZF3 substrate protein remaining % [1, 9] | Weel substrate protein remaining % [2, 9] | CK1a substrate protein remaining % [3, 9] | GSPT1 substrate protein remaining % [5, 9] | IKZF2 substrate protein remaining % [6, 9] | IKZF 1 substrate protein remaining % [7, 9]
1 | O=C1CCC(N2Cc3cc(CN4CCN(c5ccc(C(F)(F)F)cc5)CC4)ccc3C2=O)C(=O)N1 (centres unmarked) [GT-04451, 3-(1-oxo-5-((4-(4-(trifluoromethyl)phenyl)piperazin-1-yl)methyl)isoindolin-2-yl)piperidine-2,6-dione] | B (80%< substrate protein remaining %≤ 100%) | B (80%< substrate protein remaining %≤ 100%) | B (80%< substrate protein remaining %≤ 100%) | 1000 to 1500 nM | A (0% ≤ substrate protein remaining % ≤ 80%) | B (80%< substrate protein remaining %≤ 100%) | B (80%< substrate protein remaining %≤ 100%) |  |  |  |  |  | 
2 | O=C1CCC(N2C(=O)c3ccc(CN4CC=C(c5ccoc5)CC4)cc3C2=O)C(=O)N1 (centres unmarked) [GT-06223, 2-(2,6-dioxopiperidin-3-yl)-5-((4-(furan-3-yl)-3,6-dihydropyridin-1(2H)-yl)methyl)isoindoline-1,3-dione] |  |  |  | 1000 to 1500 nM |  |  |  | A (0% ≤ substrate protein remaining % ≤ 80%) | A (0% ≤ substrate protein remaining % ≤ 80%) | A (0% ≤ substrate protein remaining % ≤ 80%) | A (0% ≤ substrate protein remaining % ≤ 80%) | B (80%< substrate protein remaining %≤ 100%) | A (0% ≤ substrate protein remaining % ≤ 80%)
3 | Cc1nc(N2CCN(Cc3ccc4c(c3)CN(C3CCC(=O)NC3=O)C4=O)CC2)c2c3c(sc2n1)CCC3 (centres unmarked) [GT-05157, 3-(5-((4-(2-methyl-6,7-dihydro-5H-cyclopenta[4,5]thieno[2,3-d]pyrimidin-4-yl)piperazin-1-yl)methyl)-1-oxoisoindolin-2-yl)piperidine-2,6-dione] | A (0% ≤ substrate protein remaining % ≤ 80%) | B (80%< substrate protein remaining %≤ 100%) | A (0% ≤ substrate protein remaining % ≤ 80%) | < 500 nM | A (0% ≤ substrate protein remaining % ≤ 80%) | A (0% ≤ substrate protein remaining % ≤ 80%) | A (0% ≤ substrate protein remaining % ≤ 80%) |  |  |  |  |  | 
4 | Cc1nc(N2CCN(Cc3ccc4c(c3)CN(C3CCC(=O)NC3=O)C4=O)CC2)c2ccsc2n1 (centres unmarked) [GT-04693, 3-(5-((4-(2-methylthieno[2,3-d]pyrimidin-4-yl)piperazin-1-yl)methyl)-1-oxoisoindolin-2-yl)piperidine-2,6-dione] | A (0% ≤ substrate protein remaining % ≤ 80%) | A (0% ≤ substrate protein remaining % ≤ 80%) | B (80%< substrate protein remaining %≤ 100%) | < 500 nM | A (0% ≤ substrate protein remaining % ≤ 80%) | A (0% ≤ substrate protein remaining % ≤ 80%) | B (80%< substrate protein remaining %≤ 100%) |  |  |  |  |  | 
5 | Cc1sc2ncnc(N3CCN(Cc4ccc5c(c4)CN(C4CCC(=O)NC4=O)C5=O)CC3)c2c1C (centres unmarked) [GT-04706, 3-(5-((4-(5,6-dimethylthieno[2,3-d]pyrimidin-4-yl)piperazin-1-yl)methyl)-1-oxoisoindolin-2-yl)piperidine-2,6-dione] | A (0% ≤ substrate protein remaining % ≤ 80%) | B (80%< substrate protein remaining %≤ 100%) | A (0% ≤ substrate protein remaining % ≤ 80%) | 500 to 1000 nM | A (0% ≤ substrate protein remaining % ≤ 80%) | A (0% ≤ substrate protein remaining % ≤ 80%) | A (0% ≤ substrate protein remaining % ≤ 80%) |  |  |  |  |  | 
6 | O=C1CCC(N2Cc3cc(CN4CCN(c5ncccn5)CC4)ccc3C2=O)C(=O)N1 (centres unmarked) [GT-04484, 3-(1-oxo-5-((4-(pyrimidin-2-yl)piperazin-1-yl)methyl)isoindolin-2-yl)piperidine-2,6-dione] | B (80%< substrate protein remaining %≤ 100%) | A (0% ≤ substrate protein remaining % ≤ 80%) | A (0% ≤ substrate protein remaining % ≤ 80%) | 500 to 1000 nM | A (0% ≤ substrate protein remaining % ≤ 80%) | A (0% ≤ substrate protein remaining % ≤ 80%) | B (80%< substrate protein remaining %≤ 100%) |  |  |  |  |  | 
7 | O=C1CCC(N2Cc3cc(CN4CCC(c5ccnc6cc(F)ccc56)CC4)ccc3C2=O)C(=O)N1 (centres unmarked) [GT-04648, 3-(5-((4-(7-fluoroquinolin-4-yl)piperidin-1-yl)methyl)-1-oxoisoindolin-2-yl)piperidine-2,6-dione] | A (0% ≤ substrate protein remaining % ≤ 80%) | B (80%< substrate protein remaining %≤ 100%) | B (80%< substrate protein remaining %≤ 100%) | 500 to 1000 nM | A (0% ≤ substrate protein remaining % ≤ 80%) | A (0% ≤ substrate protein remaining % ≤ 80%) | A (0% ≤ substrate protein remaining % ≤ 80%) |  |  |  |  |  | 
8 | Cc1ccc(N2CCN(Cc3ccc4c(c3)C(=O)N(C3CCC(=O)NC3=O)C4=O)CC2)s1 (centres unmarked) [GT-06213, 2-(2,6-dioxopiperidin-3-yl)-5-((4-(5-methylthiophen-2-yl)piperazin-1-yl)methyl)isoindoline-1,3-dione] |  |  |  | 1500 to 1900 nM |  |  |  | B (80%< substrate protein remaining %≤ 100%) | B (80%< substrate protein remaining %≤ 100%) | B (80%< substrate protein remaining %≤ 100%) | A (0% ≤ substrate protein remaining % ≤ 80%) | A (0% ≤ substrate protein remaining % ≤ 80%) | B (80%< substrate protein remaining %≤ 100%)
9 | Cc1ccc(N2CCN(Cc3ccc4c(c3)CN(C3CCC(=O)NC3=O)C4=O)CC2)c(C)c1 (centres unmarked) [GT-04439, 3-(5-((4-(2,4-dimethylphenyl)piperazin-1-yl)methyl)-1-oxoisoindolin-2-yl)piperidine-2,6-dione] | A (0% ≤ substrate protein remaining % ≤ 80%) | A (0% ≤ substrate protein remaining % ≤ 80%) | A (0% ≤ substrate protein remaining % ≤ 80%) | 1000 to 1500 nM | A (0% ≤ substrate protein remaining % ≤ 80%) | A (0% ≤ substrate protein remaining % ≤ 80%) | A (0% ≤ substrate protein remaining % ≤ 80%) |  |  |  |  |  | 
10 | Cc1sc2ncnc(C3CCN(Cc4ccc5c(c4)CN(C4CCC(=O)NC4=O)C5=O)CC3)c2c1C (centres unmarked) [GT-05034, 3-(5-((4-(5,6-dimethylthieno[2,3-d]pyrimidin-4-yl)piperidin-1-yl)methyl)-1-oxoisoindolin-2-yl)piperidine-2,6-dione] | A (0% ≤ substrate protein remaining % ≤ 80%) | B (80%< substrate protein remaining %≤ 100%) | A (0% ≤ substrate protein remaining % ≤ 80%) | < 500 nM | A (0% ≤ substrate protein remaining % ≤ 80%) | A (0% ≤ substrate protein remaining % ≤ 80%) | A (0% ≤ substrate protein remaining % ≤ 80%) |  |  |  |  |  | 
11 | Cc1nc(C2=CCN(Cc3ccc4c(c3)C(=O)N(C3CCC(=O)NC3=O)C4=O)CC2)c2c3c(sc2n1)CCC3 (centres unmarked) [GT-06682, 2-(2,6-dioxopiperidin-3-yl)-5-((4-(2-methyl-6,7-dihydro-5H-cyclopenta[4,5]thieno[2,3-d]pyrimidin-4-yl)-3,6-dihydropyridin-1(2H)-yl)methyl)isoindoline-1,3-dione] |  |  |  | 1500 to 1900 nM |  |  |  | A (0% ≤ substrate protein remaining % ≤ 80%) | A (0% ≤ substrate protein remaining % ≤ 80%) | B (80%< substrate protein remaining %≤ 100%) | A (0% ≤ substrate protein remaining % ≤ 80%) | A (0% ≤ substrate protein remaining % ≤ 80%) | B (80%< substrate protein remaining %≤ 100%)
